Source: patent US20230321063A1, “COMPOSITIONS AND METHODS TO REDUCE NEUROINFLAMMATION” (Seattle Children's Hospital d/b/a Seattle Children's …, priority 2020, published 2023)

Test system: control and Ndufs4(KO) mice
Assay: Glucose tolerance test (GTT) and glucose induced lactate test
Assay type: in vivo, mouse
Conditions: 2 g/kg glucose IP; pexidartinib 300 mg/kg/d in chow, IPI-549 100 mg/kg/d in chow, rapamycin (ABI-009) 8 mg/kg/d IP
From the text: Point-of-care glucose and lactate testing. Blood glucose and lactate measurements were collected using point-of-care meters (Prodigy Autocode® glucose meter, product #51850-3466188, Prodigy® Diabetes Care, LLC, Charlotte, NC; lactate assay meter, product #40828, Nova Biomedical, Waltham, MA) and the tail-prick method, as previously described (Stokes et al. Elife 2021; 10:e65400).
Glucose tolerance test (GTT) and glucose induced lactate test. Prior to performing the GTT, mice were fasted for 4 hours, from 10 AM-2 PM. The fasting duration was limited to 4 hours given the sensitivity of untreated Ndufs4(KO) animals to hypoglycemia and related sequelae (dysregulation of body temperature, hypoglycemia induced seizure, etc.). For the ABI-009 cohort, mice received their daily ABI-009 treatment at the start of this fasting period. At the end of the 4 hour fast, baseline blood glucose and lactate values were collecting using point-of-care meters and the tail-prick method. Mice were then injected by IP with 2 g/kg dextrose (10 microliters/gram body weight of 200 mg/mL glucose in 1×PBS, 0.2 micron sterile filtered) using an insulin syringe (31-gauge, 6 mm length, 3/10 cc, BD Veo Ultra-Fine needle). Glucose and lactate levels were measured using a minimally invasive tail-prick method at designated timepoints post-injection.

FC(F)(F)c1ccc(CNc2ccc(Cc3c[nH]c4ncc(Cl)cc34)cn2)cn1 [pexidartinib, 5-[(5-chloro-1H-pyrrolo[2,3-b]pyridin-3-yl)methyl]-N-[[6-(trifluoromethyl)pyridin-3-yl]methyl]pyridin-2-amine]
blood lactate spike in response to a glucose bolus: prevented this spike in blood lactate
